From patent US20230024652A1, “PHARMACEUTICAL COMPOSITION COMPRISING SMALL OCTOPUS-DERIVED PEPTIDE FOR TREATMENT OF INFLAMMATORY DISEASE” (NATIONAL MARINE BIODIVERSITY INSTITUTE OF KOREA, priority 2020, published 2023)
Where a SMILES comes first, the peptide text is derived from it.

Tested on: RAW 264.7 macrophages
Assay: MTT cell viability / cytotoxicity and cyto-protection
Assay type: cell-based
Conditions: 62.5 to 500 μg/mL
Method: As macrophages, RAW 264.7 cells (American Type Culture Collection; ATCCUSA) were cultured in DMEM (Gibco/BRL, Canada) supplemented with 10% heat inactivated FBS and 1% antibiotics in 37° C. at 100% humidity under 5% CO2. […] After 24 hours, culture medium containing 3-(4,5-dimethylthiazol-2-yl)-2,5-diphenyltetrazolium bromide (MTT) (0.1 mg/mL) was added to each well. After 1 hour, culture medium was removed, and formazan crystals were dissolved in dimethyl sulfoxide (DMSO) and measured at 550 nm using a microplate reader. The concentration of NO in the culture medium was determined by Griess reagent (Abekura et al. Int Immunopharmacol 68:156, 2019). The cell viability of the control group untreated with Octominin was designated as 100%, which indicates no cytotoxicity

SMILES: CC[C@H](C)[C@H](NC(=O)[C@H](C)NC(=O)[C@H](CCCCN)NC(=O)CNC(=O)[C@H](C)NC(=O)[C@H](Cc1c[nH]cn1)NC(=O)[C@@H](NC(=O)[C@H](C)NC(=O)CNC(=O)[C@H](CCCNC(=N)N)NC(=O)[C@@H](NC(=O)[C@H](CC(C)C)NC(=O)[C@H](Cc1c[nH]c2ccccc12)NC(=O)CN)[C@@H](C)CC)[C@@H](C)CC)C(=O)N[C@@H](Cc1c[nH]cn1)C(=O)NCC(=O)N[C@@H](CC(C)C)C(=O)N[C@H](C(=O)N[C@@H](Cc1c[nH]cn1)C(=O)N[C@@H](CCCNC(=N)N)C(=O)N[C@@H](CCCNC(=N)N)C(=O)N[C@@H](CCCNC(=N)N)C(=O)N[C@@H](Cc1c[nH]cn1)C(=O)O)[C@@H](C)CC [Octominin] (H-GWLIRGAIHAGKAIHGLIHRRRH-OH)
- toxicity to macrophages: non-toxic
- cell viability reduction (cytotoxicity, MTT) (RAW 264.7 macrophages without LPS, compared with control group): did not show any significant cell viability reduction
